Measurements: patent US20250353891A1 (MEDIMMUNE LIMITED, priority 2022, published 2025)
Starred links: 1 amine or outer side, 2 acyl side, 3 side chain; linkers in the order of their positions; H or OH if unused. Non-standard residues stand in square brackets, D forms with d. Residues, ends and D or L forms follow the SMILES beside them. Groups on a side chain read outwards from the residue. *: point of attachment. Trp(5-Br) = N[C@@H](Cc1c[nH]c2ccc(Br)cc12)C(=O)O; C20 diacid = O=C(O)CCCCCCCCCCCCCCCCCCC(=O)*; C18 diacid = O=C(O)CCCCCCCCCCCCCCCCC(=O)*; γGlu = O=C(O)[C@H](CCC(=O)[*:2])N[*:1]; αMeF = C[C@](N)(Cc1ccccc1)C(=O)O; AEEA = NCCOCCOCC(=O)O; Aib = CC(C)(N)C(=O)O

Tests used:
[1] = biological target: human GLP-1 receptor (hGLP-1R) (Homo sapiens, UniProt P43220); assay: cAMP production (HTRF) in CHO cells expressing hGLP-1R; type: cell-based; parameters: expressed in transfected cells; conditions: for EC50: Table 6, peptides modified at position 17, cAMP in CHO hGLP-1R cells, geometric mean, read-out: hGLP-1R EC50; for % Relative Potency Ratio: Table 6, % GLP-1R activity relative to GLP-1 / % GlucR activity relative to glucagon
How it was run: (§1)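 Potency values represent EC50 from 4-parameter logistic curves of HTRF % Delta F signal. Receptor-expressing CHO cells (hGCGR 2×10^5 cells/mL, hGLP-1R 1×10^5 cells/mL) were exposed for 30 min at room temperature before two-step cAMP detection.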

[2] = biological target: human glucagon receptor (hGCGR) (Homo sapiens, UniProt P47871); assay: cAMP production (HTRF) in CHO cells expressing hGCGR; type: cell-based; parameters: expressed in transfected cells; conditions: Table 6, peptides modified at position 17; cAMP in CHO hGCGR cells; geometric mean; read-out: hGluc-R EC50
How it was run: as §1

Sequence of human glucagon receptor (hGCGR) (P47871 26-477): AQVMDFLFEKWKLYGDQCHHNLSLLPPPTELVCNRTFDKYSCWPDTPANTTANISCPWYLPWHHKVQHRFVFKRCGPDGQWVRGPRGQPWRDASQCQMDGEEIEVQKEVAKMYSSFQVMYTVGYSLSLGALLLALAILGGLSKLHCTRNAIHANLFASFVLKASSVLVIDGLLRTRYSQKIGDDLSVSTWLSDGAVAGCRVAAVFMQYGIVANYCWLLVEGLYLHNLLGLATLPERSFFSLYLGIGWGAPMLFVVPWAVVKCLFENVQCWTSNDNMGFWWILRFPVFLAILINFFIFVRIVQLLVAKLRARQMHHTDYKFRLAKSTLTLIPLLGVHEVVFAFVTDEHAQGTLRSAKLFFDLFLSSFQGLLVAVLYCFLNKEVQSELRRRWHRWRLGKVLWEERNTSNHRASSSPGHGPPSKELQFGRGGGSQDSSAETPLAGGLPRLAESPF
Sequence of human GLP-1 receptor (hGLP-1R) (P43220 24-463): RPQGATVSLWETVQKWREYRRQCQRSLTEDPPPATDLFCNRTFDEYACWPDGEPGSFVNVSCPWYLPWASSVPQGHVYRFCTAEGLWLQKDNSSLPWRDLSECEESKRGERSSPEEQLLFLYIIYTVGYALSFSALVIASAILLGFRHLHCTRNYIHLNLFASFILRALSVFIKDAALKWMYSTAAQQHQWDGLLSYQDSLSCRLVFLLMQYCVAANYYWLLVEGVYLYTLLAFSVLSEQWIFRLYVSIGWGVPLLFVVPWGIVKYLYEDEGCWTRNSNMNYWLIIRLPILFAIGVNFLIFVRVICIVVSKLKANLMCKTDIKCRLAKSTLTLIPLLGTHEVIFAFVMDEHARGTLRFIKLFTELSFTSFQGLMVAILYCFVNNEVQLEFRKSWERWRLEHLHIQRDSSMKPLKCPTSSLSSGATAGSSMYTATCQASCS

SMILES | EC50 [1] | % Relative Potency Ratio [1] | EC50 [2]
CC(C)C[C@H](NC(=O)[C@H](Cc1c[nH]c2ccc(Br)cc12)NC(=O)[C@H](CCCNC(=N)N)NC(=O)[C@@H](NC(=O)[C@H](Cc1ccccc1)NC(=O)[C@H](CC(=O)O)NC(=O)[C@H](CCC(N)=O)NC(=O)[C@H](C)NC(=O)[C@H](CCCNC(=N)N)NC(=O)[C@H](CCCCNC(=O)COCCOCCNC(=O)COCCOCCNC(=O)CC[C@H](NC(=O)CCCCCCCCCCCCCCCCC(=O)O)C(=O)O)NC(=O)[C@H](CO)NC(=O)[C@H](CC(=O)O)NC(=O)[C@H](CC(C)C)NC(=O)[C@](C)(Cc1ccccc1)NC(=O)[C@H](CCCCN)NC(=O)[C@H](CO)NC(=O)[C@@H](NC(=O)[C@H](CC(=O)O)NC(=O)[C@H](CO)NC(=O)[C@@H](NC(=O)[C@H](Cc1ccccc1)NC(=O)[C@@H](NC(=O)CNC(=O)[C@H](CCC(N)=O)NC(=O)C(C)(C)NC(=O)[C@@H](N)Cc1c[nH]cn1)[C@@H](C)O)[C@@H](C)O)C(C)C)C(C)C)C(=O)N[C@@H](CC(C)C)C(=O)NC(C)(C)C(=O)N[C@@H](CCC(=O)O)C(=O)O [Peptide 434] (H-H[Aib]QGTFTSDVSK[αMeF]LDSK([AEEA-AEEA-γGlu-C18 diacid])RAQDFVR[Trp(5-Br)]LL[Aib]E-OH; N-terminus assumed) | 0.153 nM | 3.8 | 0.294 nM
CC(C)C[C@H](NC(=O)[C@H](CC(C)C)NC(=O)C(C)(C)NC(=O)[C@H](CCC(N)=O)NC(=O)[C@@H](NC(=O)[C@H](Cc1ccccc1)NC(=O)[C@H](CC(=O)O)NC(=O)[C@H](CCCNC(=N)N)NC(=O)[C@H](C)NC(=O)[C@H](CCCNC(=N)N)NC(=O)[C@H](CCCCNC(=O)COCCOCCNC(=O)COCCOCCNC(=O)CC[C@H](NC(=O)CCCCCCCCCCCCCCCCC(=O)O)C(=O)O)NC(=O)[C@@H](NC(=O)[C@H](CC(=O)O)NC(=O)[C@H](CC(C)C)NC(=O)[C@](C)(Cc1ccccc1)NC(=O)[C@H](CCCCN)NC(=O)[C@H](CO)NC(=O)[C@@H](NC(=O)[C@H](CC(=O)O)NC(=O)[C@H](CO)NC(=O)[C@@H](NC(=O)[C@H](Cc1ccccc1)NC(=O)[C@@H](NC(=O)CNC(=O)[C@H](CCC(N)=O)NC(=O)C(C)(C)NC(=O)[C@@H](N)Cc1c[nH]cn1)[C@@H](C)O)[C@@H](C)O)C(C)C)[C@@H](C)O)C(C)C)C(=O)N[C@@H](CCC(=O)O)C(=O)NC(C)(C)C(=O)NCC(=O)O [Peptide 435] (H-H[Aib]QGTFTSDVSK[αMeF]LDTK([AEEA-AEEA-γGlu-C18 diacid])RARDFVQ[Aib]LLE[Aib]G-OH; N-terminus assumed) | 0.0227 nM | 21.0 | 0.24 nM
CC(C)C[C@H](NC(=O)[C@H](Cc1c[nH]c2ccccc12)NC(=O)[C@H](CCCNC(=N)N)NC(=O)[C@@H](NC(=O)[C@H](Cc1ccccc1)NC(=O)[C@H](CC(=O)O)NC(=O)[C@H](CCC(N)=O)NC(=O)[C@H](C)NC(=O)[C@H](CCCNC(=N)N)NC(=O)[C@H](CCCCNC(=O)COCCOCCNC(=O)COCCOCCNC(=O)CC[C@H](NC(=O)CCCCCCCCCCCCCCCCC(=O)O)C(=O)O)NC(=O)[C@H](CCCNC(=N)N)NC(=O)[C@H](CC(=O)O)NC(=O)[C@H](CC(C)C)NC(=O)[C@](C)(Cc1ccccc1)NC(=O)[C@H](CCCCN)NC(=O)[C@H](CO)NC(=O)[C@@H](NC(=O)[C@H](CC(=O)O)NC(=O)[C@H](CO)NC(=O)[C@@H](NC(=O)[C@H](Cc1ccccc1)NC(=O)[C@@H](NC(=O)CNC(=O)[C@H](CCC(N)=O)NC(=O)C(C)(C)NC(=O)[C@@H](N)Cc1c[nH]cn1)[C@@H](C)O)[C@@H](C)O)C(C)C)C(C)C)C(=O)N[C@H](C(=O)NC(C)(C)C(=O)N[C@@H](CCC(=O)O)C(N)=O)C(C)C [Peptide 436] (H-H[Aib]QGTFTSDVSK[αMeF]LDRK([AEEA-AEEA-γGlu-C18 diacid])RAQDFVRWLV[Aib]E-NH2; N-terminus assumed) | 0.00743 nM | 18.3 | 0.0688 nM

More lines, now with the values ahead:

EC50 [1] | % Relative Potency Ratio [1] | EC50 [2] | SMILES
0.0269 nM | 7.1 | 0.0969 nM | CC(C)C[C@H](NC(=O)[C@H](Cc1c[nH]c2ccccc12)NC(=O)[C@H](CCCNC(=N)N)NC(=O)[C@@H](NC(=O)[C@H](Cc1ccccc1)NC(=O)[C@H](CC(=O)O)NC(=O)[C@H](CCC(N)=O)NC(=O)[C@H](C)NC(=O)[C@H](CCCNC(=N)N)NC(=O)[C@H](CCCCNC(=O)COCCOCCNC(=O)COCCOCCNC(=O)CC[C@H](NC(=O)CCCCCCCCCCCCCCCCCCC(=O)O)C(=O)O)NC(=O)[C@H](CCCNC(=N)N)NC(=O)[C@H](CC(=O)O)NC(=O)[C@H](CC(C)C)NC(=O)[C@](C)(Cc1ccccc1)NC(=O)[C@H](CCCCN)NC(=O)[C@H](CO)NC(=O)[C@@H](NC(=O)[C@H](CC(=O)O)NC(=O)[C@H](CO)NC(=O)[C@@H](NC(=O)[C@H](Cc1ccccc1)NC(=O)[C@@H](NC(=O)CNC(=O)[C@H](CCC(N)=O)NC(=O)C(C)(C)NC(=O)[C@@H](N)Cc1c[nH]cn1)[C@@H](C)O)[C@@H](C)O)C(C)C)C(C)C)C(=O)N[C@H](C(=O)NC(C)(C)C(=O)N[C@@H](CCC(=O)O)C(N)=O)C(C)C [Peptide 437] (H-H[Aib]QGTFTSDVSK[αMeF]LDRK([AEEA-AEEA-γGlu-C20 diacid])RAQDFVRWLV[Aib]E-NH2)
0.0179 nM | 7.6 | 0.0689 nM | CC(C)C[C@H](NC(=O)[C@H](Cc1c[nH]c2ccccc12)NC(=O)[C@H](CCCNC(=N)N)NC(=O)[C@@H](NC(=O)[C@H](Cc1ccccc1)NC(=O)[C@H](CC(=O)O)NC(=O)[C@H](CCC(N)=O)NC(=O)[C@H](C)NC(=O)[C@H](CCCNC(=N)N)NC(=O)[C@H](CCCCNC(=O)COCCOCCNC(=O)COCCOCCNC(=O)CC[C@H](NC(=O)CCCCCCCCCCCCCCCCC(=O)O)C(=O)O)NC(=O)[C@H](CCCCN)NC(=O)[C@H](CC(=O)O)NC(=O)[C@H](CC(C)C)NC(=O)[C@](C)(Cc1ccccc1)NC(=O)[C@H](CCCCN)NC(=O)[C@H](CO)NC(=O)[C@@H](NC(=O)[C@H](CC(=O)O)NC(=O)[C@H](CO)NC(=O)[C@@H](NC(=O)[C@H](Cc1ccccc1)NC(=O)[C@@H](NC(=O)CNC(=O)[C@H](CCC(N)=O)NC(=O)C(C)(C)NC(=O)[C@@H](N)Cc1c[nH]cn1)[C@@H](C)O)[C@@H](C)O)C(C)C)C(C)C)C(=O)N[C@@H](CCC(=O)O)C(=O)N[C@@H](C)C(=O)NC(C)(C)C(=O)NCC(N)=O [Peptide 438] (H-H[Aib]QGTFTSDVSK[αMeF]LDKK([AEEA-AEEA-γGlu-C18 diacid])RAQDFVRWLEA[Aib]G-NH2; N-terminus assumed)
0.0306 nM | 3.7 | 0.0577 nM | CC(C)C[C@H](NC(=O)[C@H](Cc1c[nH]c2ccccc12)NC(=O)[C@H](CCCNC(=N)N)NC(=O)[C@@H](NC(=O)[C@H](Cc1ccccc1)NC(=O)[C@H](CC(=O)O)NC(=O)[C@H](CCC(N)=O)NC(=O)[C@H](C)NC(=O)[C@H](CCCNC(=N)N)NC(=O)[C@H](CCCCNC(=O)COCCOCCNC(=O)COCCOCCNC(=O)CC[C@H](NC(=O)CCCCCCCCCCCCCCCCC(=O)O)C(=O)O)NC(=O)[C@H](CCCNC(=N)N)NC(=O)[C@H](CC(=O)O)NC(=O)[C@H](CC(C)C)NC(=O)[C@](C)(Cc1ccccc1)NC(=O)[C@H](CCCCN)NC(=O)[C@H](CO)NC(=O)[C@@H](NC(=O)[C@H](CC(=O)O)NC(=O)[C@H](CO)NC(=O)[C@@H](NC(=O)[C@H](Cc1ccccc1)NC(=O)[C@@H](NC(=O)CNC(=O)[C@H](CCC(N)=O)NC(=O)C(C)(C)NC(=O)[C@@H](N)Cc1c[nH]cn1)[C@@H](C)O)[C@@H](C)O)C(C)C)C(C)C)C(=O)N[C@@H](CC(C)C)C(=O)NC(C)(C)C(=O)N[C@@H](CCC(=O)O)C(N)=O [Peptide 439] (H-H[Aib]QGTFTSDVSK[αMeF]LDRK([AEEA-AEEA-γGlu-C18 diacid])RAQDFVRWLL[Aib]E-NH2; N-terminus assumed)
0.154 nM | 1.0 | 0.081 nM | CC(C)C[C@H](NC(=O)[C@H](Cc1c[nH]c2ccccc12)NC(=O)[C@H](CCCNC(=N)N)NC(=O)[C@@H](NC(=O)[C@H](Cc1ccccc1)NC(=O)[C@H](CC(=O)O)NC(=O)[C@H](CCCNC(=N)N)NC(=O)[C@H](C)NC(=O)[C@H](CCCNC(=N)N)NC(=O)[C@H](CCCCNC(=O)COCCOCCNC(=O)COCCOCCNC(=O)CC[C@H](NC(=O)CCCCCCCCCCCCCCCCCCC(=O)O)C(=O)O)NC(=O)[C@H](CCCCN)NC(=O)[C@H](CC(=O)O)NC(=O)[C@H](CC(C)C)NC(=O)[C@](C)(Cc1ccccc1)NC(=O)[C@H](CCCCN)NC(=O)[C@H](CO)NC(=O)[C@@H](NC(=O)[C@H](CC(=O)O)NC(=O)[C@H](CO)NC(=O)[C@@H](NC(=O)[C@H](Cc1ccccc1)NC(=O)[C@@H](NC(=O)CNC(=O)[C@H](CCC(N)=O)NC(=O)C(C)(C)NC(=O)[C@@H](N)Cc1c[nH]cn1)[C@@H](C)O)[C@@H](C)O)C(C)C)C(C)C)C(=O)N[C@@H](CC(C)C)C(=O)NC(C)(C)C(=O)N[C@@H](CCC(=O)O)C(=O)O [Peptide 440] (H-H[Aib]QGTFTSDVSK[αMeF]LDKK([AEEA-AEEA-γGlu-C20 diacid])RARDFVRWLL[Aib]E-OH; N-terminus assumed)
